Where two headings read alike, the source gives them in different places.
Legend:
[1] = test system: NF-κB; conditions: human
[2] = test system: HeLa cells; conditions: human
Experimental: (§1) The cytotoxicity of the boronic acid derivatives from Table 1 was studied by MTT assay. 150,000 HeLa cells were plated in 96 well plates on the night before the experiments. On the day of experiments, the cells were treated with the boronic acid derivatives at three different concentrations (40 nM, 80 nM, and 160 nM) for 2 h. At the end of the incubation, MTT assays (In-Vitro toxicology MTT based assay kit, Sigma Aldrich, MO) were performed according to the manufacturer's protocol.

[3] = Binding assay: competition with ConA-FITC on glucose-terminated magnetic beads; conditions: relative to ConA; 2.4 μM ConA-FITC, boronic acid 2.5 μM to 20 μM, PBS pH 7.2
Experimental: The binding affinity of boronic acid derivatives to glucose was determined by competition assay using ConcanavalinA (ConA) as the competitive standard, and varying concentrations of the boronic acid derivatives. Carboxy-terminated magnetic beads were activated by suspending the beads in 100 mM 2-(N-morpholino)ethanesulfonic acid (MES) buffer (pH 4.5). Glucosamine (100 mg/mL) was conjugated to the activated magnetic beads using carbodiimide coupling with 1-ethyl-3-(3-dimethylaminopropyl)carbodiimide (EDC) as a crosslinker. The conjugation reaction was carried out in a 96 well plate. The reaction was run for 24 h. The beads were separated by placing the microplate on a magnetic separator and were washed thoroughly with PBS at pH 7.2 to remove unbound glucose, excess EDC, and N-hydroxysulfosuccinimide (Sulfo-NHS).
The glucose terminated beads were co-incubated for 1 h with 2.4 μM ConA (a known binder of carbohydrates) fluorescently tagged with fluorescein isothiocyanate (ConA-FITC), and titrated with concentrations ranging from 2.5 μM to 20 μM of each boronic acid derivative tested. The following controls were used: (A) carboxy-terminated magnetic beads (not conjugated to glucose) were treated with ConA-FITC to determine non-specific binding; and (B) glucose conjugated beads were treated with a high concentration of non-fluorescent ConA to determine maximal binding.
The wells were washed three times with PBS at pH 7.2 to remove unbound boronic acid derivatives and FITC-ConA. The beads were re-suspended in PBS and stirred for 15 min at rt before measuring FITC fluorescence (excitation: 495 nm, top emission: 520 nm; 6 flashes per well; average of n=3 wells in a Flexstation 11^384 microplate reader to quantify the amount of glucose bound to the boronic acids). The fluorescence intensity was measured and used as an indication of the amount of ConA bound to the surface of the beads, or [ConAs]. The ConA-sugar interaction was expected to be inhibited by the boronic acid derivatives, which can bind the sugar molecules and displace the bound ConA-FITC, thereby causing a decrease in fluorescence intensity of the mixture.
The binding constant of the boronic acid derivatives was calculated from the fluorescence intensity. The reduction of fluorescence intensity is related to [ConAs] by Equation 2.
[formula] The relationship between [ConAs] and the amount of boronic acid [BA] is given by Equation 3.
[formula] Simple rearrangement yields Equation 4, from which the ratio of the two equilibrium constants (KConA/KBA) can be derived.
[formula] • The concentration of sugar sites (S1) can be calculated from the intercept of a plot of 1/[ConAs] vs 1/[BA].

[4] = test system: HeLa cells; assay: MTT assay for cytotoxicity; conditions: 2 h
Experimental: as §1

[5] = test system: NF-κB; assay: NF-κB assay for inflammation (nuclear translocation of NF-κB, immunocytochemistry, PCC); conditions: HeLa cells; for Inflammation (PCC) 40 nM / Inflammation (PCC) 80 nM / Inflammation (PCC) 160 nM: 2 h, PCC between nuclear and cytoplasmic fraction of NF-κB

Row | Sugar Binding Affinity Log(KaBA/KaConA) [3] | Inflammation (PCC) 40 nM [5] | Inflammation (PCC) 80 nM [5] | Inflammation (PCC) 160 nM [5] | Compound | Inflammation (PCC) 40 nM [1] | Inflammation (PCC) 80 nM [1] | Inflammation (PCC) 160 nM [1] | MTT (% Cell Survival) 40 nM [2] [%] | MTT (% Cell Survival) 80 nM [2] [%] | MTT (% Cell Survival) 160 nM [2] [%] | MTT (% Cell Survival) 40 nM [4] [%] | MTT (% Cell Survival) 80 nM [4] [%] | MTT (% Cell Survival) 160 nM [4] [%] | nuclear or cytoplasmic localization of NF-κB (FIG. 4 images) ([5]; boronic acids 80 nM, 2 hrs, LPS positive control)
1 |  |  |  |  | OB(O)c1ccc(Cl)cc1 [4-chlorophenylboronic acid] | −0.1494 | 0.01664 | 0 | 51.23 | 81.65 | 56.97 |  |  |  | 
2 | −0.14 | −0.1236 | −0.0401 | 0.1862 | CN(C)c1cccc(B(O)O)c1 [3-(N,N-dimethylamino)phenyl boronic acid] |  |  |  |  |  |  | 123.37 | 86.2247 | 85.91 | 
3 | −2.9 | −0.0553 | −0.0396 | 0.1494 | OB(O)c1cccnc1Br [2-bromopyridine-3-boronic acid] |  |  |  |  |  |  | 102.96 | 94.00 | 87.88 | 
4 | −2.3 | −0.0211 | −0.0701 | 0.1187 | OB(O)c1ccc(-c2ccccc2)s1 [5-phenyl-2-thienylboronic acid] |  |  |  |  |  |  | 100.56 | 81.24 | 86.23 | 
5 | −1.03 | −0.0838 | 0.01211 | 0 | NC(=O)c1ccc(B(O)O)cc1 [4-aminocarbonylphenylboronic acid] |  |  |  |  |  |  | 86.57 | 97.67 | 57.28 | 
6 | −1.03 | −0.0824 | 0.03311 | 0.3965 | OB(O)c1cccc(Cl)c1 [3-chlorophenylboronic acid] |  |  |  |  |  |  | 97.1779 | 73.129 | 38.55 | 
7 | −1.24 | −0.0359 | 0.00225 | 0.193 | O=Cc1cc(B(O)O)cs1 [5-formylthiophene-3-boronic acid] |  |  |  |  |  |  | 86.87 | 87.03 | 73.80 | 
8 |  | −0.0736 | −0.0438 | −0.128 | OB(O)c1cccc2c1oc1ccccc12 [4-dibenzofuranboronic acid] |  |  |  |  |  |  | 71.48 | 75.50 | 70.50 | 
9 |  | −0.0641 | 0.0475 | 0.104 | N#Cc1ccccc1B(O)O [2-cyanophenylboronic acid] |  |  |  |  |  |  | 117.42 | 62.63 | 60.33 | 
10 |  | −0.0647 | −0.0533 | 0.04709 | OB(O)c1cnc(OCc2ccccc2)nc1OCc1ccccc1 [2,4-bis(benzyloxy)pyrimidine-5-boronic acid] |  |  |  |  |  |  | 100.05 | 89.04 | 74.74 | 
11 |  | −0.0586 | 0.00516 | −0.01522 | O=c1[nH]cc(B(O)O)c(=O)[nH]1 [uracil-5-boronic acid] |  |  |  |  |  |  | 68.5083 | 50.3499 | 28.07 | 
12 |  | −0.0808 | −0.0523 | −0.08086 | COc1ccc(C#N)cc1B(O)O [5-cyano-2-methoxyphenylboronic acid] |  |  |  |  |  |  | 81.55 | 49.84 | 62.08 | 
13 | −0.009 | −0.1402 | −0.0786 | 0.1922 | CCCc1ccc(B(O)O)cc1 [4-propylphenylboronic acid] |  |  |  |  |  |  | 202.674 | 202.92 | 164.2 | 

Row | Compound | Sugar Binding Affinity Log(KaBA/KaConA) [3] | Inflammation (PCC) 40 nM [5] | Inflammation (PCC) 80 nM [5] | Inflammation (PCC) 160 nM [5] | Inflammation (PCC) 40 nM [1] | Inflammation (PCC) 80 nM [1] | Inflammation (PCC) 160 nM [1] | MTT (% Cell Survival) 40 nM [2] [%] | MTT (% Cell Survival) 80 nM [2] [%] | MTT (% Cell Survival) 160 nM [2] [%] | MTT (% Cell Survival) 40 nM [4] [%] | MTT (% Cell Survival) 80 nM [4] [%] | MTT (% Cell Survival) 160 nM [4] [%] | nuclear or cytoplasmic localization of NF-κB (FIG. 4 images) ([5]; boronic acids 80 nM, 2 hrs, LPS positive control)
14 | CC(C)(C)Oc1ncc(B(O)O)c(OC(C)(C)C)n1 [2,4-di-tert-butoxypyrimidin-5-ylboronic acid] | 0.008 | −0.0888 | 0.03106 | 0.1726 |  |  |  |  |  |  | 100.46 | 90.60 | 71.81 | predominantly cytoplasmic NF-κB
15 | O=C(Cl)c1ccc(B2OB(c3ccc(C(=O)Cl)cc3)OB(c3ccc(C(=O)Cl)cc3)O2)cc1 [4-chlorocarbonylphenylboronic anhydride] | −2.08 | −0.0664 | −0.0012 | 0.09826 |  |  |  |  |  |  | 114.54 | 107.21 | 79.46 | 
16 | OB(O)c1ccc(Cl)cc1Cl [2,4-dicholorophenylboronic acid] | −0.93 | −0.0502 | 0.09386 | 0.3067 |  |  |  |  |  |  | 99.29 | 81.59 | 79.9 | 
17 | OB(O)c1ccc(O)cc1 [4-hydroxyphenylboronic acid] | −1.08 | −0.0665 | −0.1081 | 0.2007 |  |  |  |  |  |  | 203.926 | 198.184 | 172.8 | 
18 | OB(O)c1ccc2ccccc2c1 [2-napthylboronic acid] |  | 0.06402 | 0.2437 | 0.09593 |  |  |  |  |  |  | 24.3831 | 37.2192 | 21.1 | 
